The test system of test [1] is Sprague Dawley rats. As to the kind of experiment: 28-day intravenous toxicity study in rats, liver histopathology (subacute hepatitis). The format is in vivo. The procedure:
Potential toxicity of Compound 1-HCl was evaluated by intravenous administration to Sprague Dawley rats for 28 days. This study was conducted in compliance with FDA Good Laboratory Practice Standards, 21 CFR 58 and in accordance with OECD Principles of Good Laboratory Practice.
One hundred twelve Sprague Dawley—HsD: SD rats were randomly divided into eight groups and treated with Compound 1 (“test article”) or vehicle, by intravenous administration via the lateral tail vein (slow bolus) (Table 1).
Animals in Groups 1-4 were subjected to a complete necropsy examination. Protocol-specified necropsy procedures included the recording of organ weights (adrenals, brain, hearts, kidneys, liver, testes, ovaries, spleen, thyroids, parathyroids), examination of the external body surface, examination of all orifices, and examination of the cranial, thoracic, and abdominal cavities and their contents. Post-fixation weights for the thyroids/parathyroids were recorded. The following protocol-specified tissues were collected at necropsy: animal identification (not evaluated), abnormalities (gross findings), adrenals, aorta, brain, cecum, cervix, colon, duodenum, epidiymides, esophagus, eye with optic nerve, femur with articular surface, heart, ileum, injection site, jejunum, kidneys, lacrimal glands (exorbital), larynx, liver, lung with mainstem bronchus, mammary gland, mandibular lymph nodes, mesenteric lymph nodes, ovaries, pancreas, pituitary, prostate, rectum, salivary glands, sciatic nerve, seminal vesicles, skeletal muscle (thigh), skin, spinal cord (cervical, midthoracis, lumbar), spleen, sternum with bone marrow, stomach, testes, thymus, thyroid/parathyroid, tongue, trachea, urinary bladder, uterus, and vagina.
On day 29, animals were weighed and sacrificed by CO2 inhalation. Protocol-specific tissues were preserved in 10% neutral buffered formalin (NBF). Protocol-requires tissues were embedded in paraffin, sectioned at approximately 5 microns, and processed to slides stained with hematoxylin and eosin (H&E). Histopathological evaluation was performed by a veterinary pathologist on all rats in Group 1 and Group 4 sacrificed on day 29, as well as for all early deaths. Livers for animals in Groups 2 and 3 were evaluated microscopically.

Test [2] relates to LPS induced TNF-alpha in monocytes. In words: LPS induced TNF-alpha in monocytes (TNF alpha assay). The following applies: Monocyte; compound 10 uM; 5 ng/mL LPS; read-out: Mean Percent Inhibition of TNF-alpha using 5 ng/mL LPS. The format is cell-based. Here is the method:
This test is a standard methodology for assessing the anti-inflammatory activity of compounds. Table 1 provides Percent Inhibition of LPS induced TNF-alpha in monocytes data for 18 hydroxylamine compounds of the invention. Compounds at different concentrations (0, 1, 2.5 and 10 uM) were incubated with 100 ul freshly collected heparinized blood for 10 minutes. […] Following incubation with LPS, PBS was added (800 uL) and samples were spun for 10 minutes at 1500 g. TNFα protein concentrations were measured using R&D Systems high sensitivity ELISA kit. THP-1 cells (0.5×10^6 cells/mL) were incubated with the compounds (0, 1, 2.5 and 10 uM) for 3 hrs in humidified chamber, 37° C., 5% CO2, 2% FBS in RPMI medium. Cells were induced with 25 ng/mL LPS for another 3 hrs. Cells were collected and spun at 1500 g for 10 minutes. Supernatant was collected and analyzed for TNFα.

Take `CC1(C)CC(OC(=O)C2CC2)CC(C)(C)N1O.Cl` [Compound 1, 1-Hydroxy-4-cyclopropanecarbonyloxy-2,2,6,6-tetramethylpiperidine hydrochloride]: the “Subacute hepatic inflammation (hepatitis) incidence, number of rats with minimal subacute hepatitis” value in test [1] (Group 2, 1.0 mg/kg/day i.v. 28 days, female rats (8 per group), vehicle Group 1 females 6/8) is “one”; in test [1] (Group 3, 2.5 mg/kg/day i.v. 28 days, male rats (8 per group), vehicle Group 1 males 8/8) it was “one”. Besides, the “Subacute hepatic inflammation (hepatitis) incidence” value is recorded as “not present in any” in test [1] (Group 2, 1.0 mg/kg/day i.v. 28 days, male rats (8 per group), vehicle Group 1 males 8/8); “not present in any” in test [1] (Group 3, 2.5 mg/kg/day i.v. 28 days, female rats (8 per group), vehicle Group 1 females 6/8); “not present in any” in test [1] (Group 4, 7.5 mg/kg/day i.v. 28 days, female rats (8 per group), vehicle Group 1 females 6/8); “not present in any” in test [1] (Group 4, 7.5 mg/kg/day i.v. 28 days, male rats (8 per group), vehicle Group 1 males 8/8). Besides, the “Effect on background liver inflammation (idiopathic lesion) in treated rats” value in test [1] (Groups 2-4 (1.0-7.5 mg/kg/day i.v. 28 days), male and female rats) is “reduction in the incidence of this idiopathic lesion”. For the same compound, the inhibition at 10 µM in test [2] amounted to 68 ± 6%.

The values above are taken from patent publication US20070197593A1, “HYDROXYLAMINES AND DERIVATIVES FOR TREATMENT OF INFLAMMATORY CONDITIONS OF THE LIVER” (priority 2006, published 2007).
